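Values below derive from 48-hour exposures of cells grown in 96-well plates, with endpoints linearly interpolated between the two concentrations bracketing the appropriate inhibition level. The concentration for full growth arrest is given as TGI.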
Legend:
Experiment in all cases: NCI anticancer screen, dose series, 48 h
[1] = test system: M14 melanoma
[2] = test system: LXFL 529 NSCLC
[3] = test system: DMS 114 small cell lung
[4] = test system: KM20L2 colon
[5] = test system: M19-MEL melanoma
[6] = test system: SN12C renal
[7] = test system: SF-268 CNS
[8] = test system: LOX IMVI melanoma
[9] = test system: NCI-H460 lung
[10] = test system: SF-539 CNS
[11] = test system: KM12 colon
[12] = test system: HL-60(TB) leukemia
[13] = test system: HOP-18 NSCLC
[14] = test system: 786-0 renal
[15] = test system: IGROV1 ovarian
[16] = test system: NCI-H23 lung
[17] = test system: OVCAR-8 ovarian
[18] = test system: HCC-2998 colon
[19] = test system: MOLT-4 leukemia
[20] = test system: SK-OV-3 ovarian
[21] = test system: U251 CNS
[22] = test system: SK-MEL-28 melanoma
[23] = test system: TK-10 renal
[24] = test system: SW-620 colon
[25] = test system: HOP-92 NSCLC
[26] = test system: DLD-1 colon
[27] = test system: SNB-75 CNS
[28] = test system: DMS 273 small cell lung
[29] = test system: RXF-631 renal
[30] = test system: UACC-257 melanoma
[31] = test system: SR leukemia
[32] = test system: MALME-3M melanoma
[33] = test system: EKVX NSCLC
[34] = test system: SNB-78 CNS
[35] = test system: SF-295 CNS
[36] = test system: OVCAR-4 ovarian
[37] = test system: A549 NSCLC
[38] = test system: UACC-62 melanoma
[39] = test system: XF 498 CNS
[40] = test system: UO-31 renal
[41] = test system: HOP-62 NSCLC
[42] = test system: NCI-H522 lung
[43] = test system: CAKI-1 renal
[44] = test system: HCT-116 colon
[45] = test system: HT29 colon
[46] = test system: HCT-15 colon
[47] = test system: SK-MEL-5 melanoma
[48] = test system: SNB-19 CNS
[49] = test system: A498 renal
[50] = test system: K-562 leukemia
[51] = test system: NCI-H226 lung
[52] = test system: OVCAR-5 ovarian
[53] = test system: RXF 393 renal
[54] = test system: SK-MEL-2 melanoma
[55] = test system: ACHN renal
[56] = test system: CCRF-CEM leukemia
[57] = test system: COLO 205 colon
[58] = test system: OVCAR-3 ovarian

**Q.** What does the source list for `c1ccc(N=c2nc(N3CCOCC3)ss2)cc1`?
**A.** TGI [1]: 27.9 µM; TGI [2]: 24.6 µM; TGI [3]: 30.2 µM; TGI [4]: 31.4 µM; TGI [5]: 32 µM; TGI [6]: 28.5 µM; TGI [7]: 31.1 µM; TGI [8]: 30.1 µM; TGI [9]: 34.7 µM; TGI [10]: 32.3 µM; TGI [11]: 32.5 µM; TGI [12]: 47.3 µM; TGI [13]: > 100 µM; TGI [14]: 30.1 µM; TGI [15]: 52.7 µM; TGI [16]: > 100 µM; TGI [17]: 28.3 µM; TGI [18]: 45.1 µM; TGI [19]: 37.1 µM; TGI [20]: > 100 µM; TGI [21]: 28.6 µM; TGI [22]: 32.1 µM; TGI [23]: > 100 µM; TGI [24]: 21.8 µM; TGI [25]: 36.3 µM; TGI [26]: 28.3 µM; TGI [27]: 39 µM; TGI [28]: 31.4 µM; TGI [29]: 31.7 µM; TGI [30]: 29.8 µM; TGI [31]: 58.3 µM; TGI [32]: 28.8 µM; TGI [33]: 36.4 µM; TGI [34]: 51.3 µM; TGI [35]: 35.1 µM; TGI [36]: 29.1 µM; TGI [37]: > 100 µM; TGI [38]: 27.5 µM; TGI [39]: 32.1 µM; TGI [40]: 50.2 µM; TGI [41]: > 100 µM; TGI [42]: 25.3 µM; TGI [43]: 34.5 µM; TGI [44]: 27.7 µM; TGI [45]: 35.4 µM; TGI [46]: 29 µM; TGI [47]: > 100 µM; TGI [48]: > 100 µM; TGI [49]: 79.5 µM; TGI [50]: 43.6 µM; TGI [51]: > 100 µM; TGI [52]: 52.1 µM; TGI [53]: 31.3 µM; TGI [54]: 43.4 µM; TGI [55]: 30.9 µM

**Q.** `CC(=O)O[C@H]1C=CC(=O)C(C)CC1C` (some centres undefined) was tested. Which TGI [1] did it give?
**A.** > 100 µM

**Q.** And the TGI [2]?
**A.** > 100 µM

**Q.** What about the TGI [3] of the same compound?
**A.** > 100 µM

**Q.** What about the TGI [4] of the same compound?
**A.** > 100 µM

**Q.** What about the TGI [5] of the same compound?
**A.** > 100 µM

**Q.** What about the TGI [6] of the same compound?
**A.** > 100 µM

**Q.** And the TGI [7]?
**A.** > 100 µM

**Q.** And the TGI [8]?
**A.** > 100 µM

**Q.** What about the TGI [9] of the same compound?
**A.** > 100 µM

**Q.** What about the TGI [10] of the same compound?
**A.** > 100 µM

**Q.** What about the TGI [11] of the same compound?
**A.** > 100 µM

**Q.** And the TGI [12]?
**A.** > 100 µM

**Q.** And the TGI [15]?
**A.** > 100 µM

**Q.** And the TGI [16]?
**A.** > 100 µM

**Q.** And the TGI [18]?
**A.** > 100 µM

**Q.** And the TGI [56]?
**A.** > 100 µM

**Q.** What about the TGI [19] of the same compound?
**A.** > 100 µM

**Q.** What about the TGI [20] of the same compound?
**A.** > 100 µM

**Q.** And the TGI [21]?
**A.** > 100 µM

**Q.** What about the TGI [22] of the same compound?
**A.** > 100 µM

**Q.** And the TGI [23]?
**A.** > 100 µM

**Q.** What about the TGI [24] of the same compound?
**A.** > 100 µM

**Q.** And the TGI [25]?
**A.** > 100 µM

**Q.** And the TGI [26]?
**A.** > 100 µM

**Q.** What about the TGI [27] of the same compound?
**A.** > 100 µM

**Q.** And the TGI [28]?
**A.** > 100 µM

**Q.** And the TGI [29]?
**A.** > 100 µM

**Q.** And the TGI [30]?
**A.** > 100 µM

**Q.** And the TGI [31]?
**A.** > 100 µM

**Q.** What about the TGI [32] of the same compound?
**A.** > 100 µM

**Q.** What about the TGI [33] of the same compound?
**A.** > 100 µM

**Q.** And the TGI [57]?
**A.** > 100 µM

**Q.** And the TGI [34]?
**A.** > 100 µM

**Q.** And the TGI [35]?
**A.** > 100 µM

**Q.** What about the TGI [36] of the same compound?
**A.** > 100 µM

**Q.** And the TGI [37]?
**A.** > 100 µM

**Q.** And the TGI [38]?
**A.** > 100 µM

**Q.** And the TGI [39]?
**A.** > 100 µM

**Q.** And the TGI [40]?
**A.** > 100 µM

**Q.** And the TGI [41]?
**A.** > 100 µM

**Q.** What about the TGI [42] of the same compound?
**A.** > 100 µM

**Q.** And the TGI [43]?
**A.** > 100 µM

**Q.** And the TGI [44]?
**A.** > 100 µM

**Q.** And the TGI [45]?
**A.** > 100 µM

**Q.** What about the TGI [47] of the same compound?
**A.** > 100 µM

**Q.** And the TGI [58]?
**A.** > 100 µM

**Q.** And the TGI [48]?
**A.** > 100 µM

**Q.** And the TGI [49]?
**A.** > 100 µM

**Q.** And the TGI [50]?
**A.** > 100 µM

**Q.** What about the TGI [51] of the same compound?
**A.** > 100 µM

**Q.** And the TGI [52]?
**A.** > 100 µM

**Q.** What about the TGI [53] of the same compound?
**A.** > 100 µM

**Q.** What about the TGI [54] of the same compound?
**A.** > 100 µM

**Q.** And the TGI [55]?
**A.** > 100 µM

From PubChem BioAssay (NCI)
